Experimental data: ChEMBL document CHEMBL5375953, “Discovery of Biaryl Amide Derivatives as Potent, Selective, and Orally Bioavailable RORγt Agonists for Cancer Immunotherapy” (J Med Chem, 2023)

Tests used:
[1] = molecular target: T1, Nuclear receptor ROR-gamma (Homo sapiens, UniProt P51449); test: Inverse agonist activity at biotinylated APC-labeled RORgammat LBD (unknown origin) assessed as inhibition of europium-labeled SRC1 coactivator peptide recruitment incubated for 1 hr by dual FRET assay
T1 sequence (P51449 whole entry): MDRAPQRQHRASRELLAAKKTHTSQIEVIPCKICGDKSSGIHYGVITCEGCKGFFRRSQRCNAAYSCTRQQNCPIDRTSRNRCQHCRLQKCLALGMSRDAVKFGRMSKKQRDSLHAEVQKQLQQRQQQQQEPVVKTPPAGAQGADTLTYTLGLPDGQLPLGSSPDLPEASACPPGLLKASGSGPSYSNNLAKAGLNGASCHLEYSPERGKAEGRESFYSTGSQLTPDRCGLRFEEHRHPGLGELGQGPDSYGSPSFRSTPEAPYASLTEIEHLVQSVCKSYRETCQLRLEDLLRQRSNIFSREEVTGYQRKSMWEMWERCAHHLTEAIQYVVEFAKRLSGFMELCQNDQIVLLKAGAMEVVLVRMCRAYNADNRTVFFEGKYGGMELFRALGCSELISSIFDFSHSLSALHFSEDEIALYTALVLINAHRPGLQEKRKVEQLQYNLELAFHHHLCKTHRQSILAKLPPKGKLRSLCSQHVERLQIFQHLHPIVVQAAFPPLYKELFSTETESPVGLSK

[2] = molecular target: T1, Nuclear receptor ROR-gamma; test: Agonist activity at biotinylated APC-labeled RORgammat LBD (unknown origin) assessed as increase in recruitment of europium-labeled SRC1 coactivator peptide incubated for 1 hr by dual FRET assay
[3] = molecular target: T2, Nuclear receptor ROR-alpha (Homo sapiens, UniProt P35398); test: Agonist activity at human Gal4-fused RORalpha expressed in HEK293T cells assessed as luciferase activity incubated for 16 to 20 hrs by Luciferase reporter gene assay; assay type: cell-based
T2 sequence (P35398 whole entry): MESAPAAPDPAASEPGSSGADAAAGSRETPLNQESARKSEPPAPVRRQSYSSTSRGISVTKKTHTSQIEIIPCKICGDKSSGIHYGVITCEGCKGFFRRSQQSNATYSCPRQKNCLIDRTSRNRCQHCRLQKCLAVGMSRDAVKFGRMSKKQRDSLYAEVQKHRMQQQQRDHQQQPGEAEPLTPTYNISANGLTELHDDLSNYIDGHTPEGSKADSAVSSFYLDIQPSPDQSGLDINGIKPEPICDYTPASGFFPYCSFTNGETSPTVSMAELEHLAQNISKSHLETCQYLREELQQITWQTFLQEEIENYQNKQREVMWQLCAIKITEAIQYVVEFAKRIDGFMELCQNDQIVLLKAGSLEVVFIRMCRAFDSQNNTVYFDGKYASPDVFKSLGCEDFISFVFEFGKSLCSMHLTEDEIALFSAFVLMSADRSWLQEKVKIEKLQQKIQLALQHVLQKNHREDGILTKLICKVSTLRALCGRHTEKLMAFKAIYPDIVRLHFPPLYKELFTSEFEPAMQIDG

[4] = molecular target: T3, Nuclear receptor ROR-alpha (Homo sapiens) (UniProt P35398); test: Agonist activity at human Gal4-fused RORalpha expressed in HEK293T cells assessed as luciferase activity by measuring maximal response incubated for 16 to 20 hrs by Luciferase reporter gene assay relative to control; assay type: cell-based; settings: filed as agonist, time 16-20 hrs
T3 sequence (whole entry): T2 sequence (P35398 whole entry)

[5] = molecular target: T4, Nuclear receptor ROR-beta (Homo sapiens, UniProt Q92753); test: Agonist activity at human Gal4-fused RORbeta expressed in HEK293T cells assessed as luciferase activity incubated for 16 to 20 hrs by Luciferase reporter gene assay; assay type: cell-based
T4 sequence (Q92753 whole entry): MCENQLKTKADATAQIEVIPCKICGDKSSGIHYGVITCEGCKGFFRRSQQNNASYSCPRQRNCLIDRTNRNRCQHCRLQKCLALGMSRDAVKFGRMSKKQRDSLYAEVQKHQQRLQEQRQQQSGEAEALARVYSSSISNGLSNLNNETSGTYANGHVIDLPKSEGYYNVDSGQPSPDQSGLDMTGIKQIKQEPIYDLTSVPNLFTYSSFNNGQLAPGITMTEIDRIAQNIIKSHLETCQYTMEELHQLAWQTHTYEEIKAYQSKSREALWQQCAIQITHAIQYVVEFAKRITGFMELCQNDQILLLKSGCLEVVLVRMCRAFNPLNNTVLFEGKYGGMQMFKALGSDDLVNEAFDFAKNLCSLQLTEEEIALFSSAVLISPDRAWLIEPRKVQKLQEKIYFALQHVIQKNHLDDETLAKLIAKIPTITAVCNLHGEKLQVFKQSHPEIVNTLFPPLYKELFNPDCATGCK

[6] = molecular target: T5, Nuclear receptor ROR-beta (Homo sapiens) (UniProt Q92753); test: Agonist activity at human Gal4-fused RORbeta expressed in HEK293T cells assessed as luciferase activity by measuring maximal response incubated for 16 to 20 hrs by Luciferase reporter gene assay relative to control; assay type: cell-based; settings: filed as agonist, time 16-20 hrs
T5 sequence (whole entry): T4 sequence (Q92753 whole entry)

B16-F10 = test: Antitumor activity against mouse B16-F10 cells xenografted in C57BL/6 mouse assessed as tumor growth inhibition at 50 mg/kg,ip administrated on day 7 for 8 days relative to control; assay type: functional; settings: B16-F10, 192 h, time 8 day, read-out: TGI
cells = settings: Mus musculus, CD4+ T cell, 96 h
Description: Induction of Th17 cells differentiation in mouse CD4+ T cell assessed as increase in CD4+ IL-17A production incubated for 4 days by flow cytometry analysis

in vivo = settings: CD-1, mouse, po, 10 mg/kg
[7] = Metabolic Stability in mouse liver microsome assessed as half life at […] measured upto 60 mins by HPLC-MS/MS analysis; assay type: ADME; settings: liver microsomes
[8] = Metabolic Stability in mouse liver microsome assessed as microsomal intrinsic clearance at […] measured upto 60 mins by HPLC-MS/MS analysis; assay type: ADME; settings: liver microsomes, read-out: CLH
[9] = Metabolic Stability in human liver microsome assessed as half life at […] measured upto 60 mins by HPLC-MS/MS analysis; assay type: ADME; settings: liver microsomes
[10] = Metabolic Stability in human liver microsome assessed as microsomal intrinsic clearance at […] measured upto 60 mins by HPLC-MS/MS analysis; assay type: ADME; settings: liver microsomes, read-out: CLH

| Compound | EC50 [2] | half-life [7] | microsomal CLint [8] | half-life [9] | microsomal CLint [10] | further results |
| --- | --- | --- | --- | --- | --- | --- |
| CCS(=O)(=O)c1ccc(CC(=O)Nc2cc(Cl)c(-c3ccccc3)c(Cl)c2)cc1 | – | – | – | – | – | XC50 [1]: 9.2 nM |
| CCS(=O)(=O)c1ccc(CC(=O)Nc2cc(Cl)c(-c3ccc(CC4CCCC4)c(C#N)c3)c(Cl)c2)cc1 | 14.3 nM | – | – | – | – | – |
| CCS(=O)(=O)c1ccc(CC(=O)Nc2cc(Cl)c(-c3ccc(CC(C)C)c(F)c3)c(Cl)c2)cc1 | 15.2 nM | – | – | – | – | – |
| CC(C)(C[C@H]1CN(S(=O)(=O)c2cccc(C(F)(F)F)c2)c2cc(-c3cc(F)cc(OC(F)F)c3)ccc2O1)C(=O)O [CINTIRORGON] | – | – | – | – | – | EC50 [3]: 2920 nM; %max [4]: 67.3%; EC50 [5]: 5430 nM; %max [6]: 100%; inhibition in vivo at 50 mg/kg (B16-F10): 45.3%; EC50 (cells): 9.8 nM; AUC(0-inf) at 24 h (in vivo): 3240 ng·h/mL |
| CCS(=O)(=O)c1ccc(CC(=O)Nc2cc(Cl)c(-c3ccc(C=C4CCC4)c(C#N)c3)c(Cl)c2)cc1 | 20.7 nM | – | – | – | – | – |
| CCS(=O)(=O)c1ccc(CNC(=O)c2cc(Cl)c(-c3ccc(CC(C)C)c(C#N)c3)c(Cl)c2)cc1 | – | 28 min | 49.5 µL/min/mg | < 2.5 min | > 554 µL/min/mg | – |
| CCS(=O)(=O)c1ccc(CC(=O)Nc2cc(Cl)c(-c3ccc(CC(C)C)c(C#N)c3)c(Cl)c2)nc1 | – | 37.4 min | 37 µL/min/mg | 9.3 min | 150 µL/min/mg | – |
| CCS(=O)(=O)c1ccc(CC(=O)Nc2cc(Cl)c(-c3ccc(CC(C)C)cc3)c(Cl)c2)cc1 | 12.7 nM | – | – | – | – | – |
| CCS(=O)(=O)c1ccc(CNC(=O)Nc2cc(Cl)c(-c3ccc(CC(C)C)c(C#N)c3)c(Cl)c2)cc1 | – | 50.6 min | 27.4 µL/min/mg | 3.9 min | 354 µL/min/mg | – |
| CCS(=O)(=O)c1ccc(CC(=O)Nc2cc(Cl)c(-c3ccc(CC(C)C)c(C#N)c3)c(Cl)c2)cc1 | 12.2 nM | 37.7 min | 36.7 µL/min/mg | 2.6 min | 533 µL/min/mg | EC50 (cells): 13 nM |
| CCC(C)Cc1ccc(-c2c(Cl)cc(NC(=O)Cc3ccc(S(=O)(=O)CC)cc3)cc2Cl)cc1C#N (stereo unspecified) | – | 78.5 min | 17.6 µL/min/mg | 16.9 min | 81.9 µL/min/mg | – |
| CCS(=O)(=O)c1ccc(CC(=O)Nc2cc(Cl)c(-c3ccc(CN(C)C)c(C#N)c3)c(Cl)c2)cc1 | – | 12.9 min | 108 µL/min/mg | – | – | – |
